These results are taken from patent US10301271B2, “Crystalline forms of tyrosine kinase inhibitors and their salts” (PURDUE PHARMA L.P., priority 2014, dated 2019).

pIC50: −log10 of the molar value.

Series [1] in a line: Rat pharmacokinetics (plasma and brain, LC-MS/MS). Format: in vivo. The following applies: PO, 100 mg/kg, mean. The method, then: Compound I was dosed to nonfasted male CD IGS rats (weighting 180-250 g, Charles River Laboratories) by single intravenous (IV, n=3/group) or oral gavage (PO, n=4/group, including control rat group for drug-free blood and brain collection) administration at a nominal dose levels of 3 mg/kg (IV) or 5 mg/kg (IV) and 10, 50, 100 mg/kg (PO) respectively. Compound was formulated in either DMSO/Solutol: HS 15/phosphate buffered saline, pH 7.4 (PBS) for both IV and PO dosing, or 10% (w/v) Povidone K12 in water for IV dosing or 10% (w/v) Povidone K25 in water for PO dosing, or 18% (w/v) CrosPovidone in water for PO dosing. An intravenous profile was obtained by taking serial or terminal blood samples at 3, 10, 30, 60, 120, 240, 360, 1440 min post dose. An oral profile was obtained by taking serial or terminal blood samples at 10, 30, 60, 120, 240, 360, 480, 1440 min post dose.
Plasma Sample Collection from Rats. Animals were sedated under general inhalant anesthesia (3% isoflurane) for blood collection by cardiac puncture. […]
Plasma and brain samples were subjected to quantitative analysis by LC-MS/MS using compound-specific mass transitions. […] The concentrations of the test compound in brain (ng/g brain tissue) and in plasma (ng/mL) as well as the ratio of the brain concentration and the plasma concentration at each time point were determined and reported.

Another series addresses T1, TrkA (human full length) (Homo sapiens, UniProt P04629).
T1 construct: expressed recombinantly on the intracellular C-terminus of TrkA (human full length); host or cells: U2OS
Nature of the series: PathHunter live whole cell functional assay, NGF stimulated TrkA activation. In kind it is cell-based. The following applies: U2OS cell background, mean of triplicate; read-out: cellular IC50, inhibition of NGF stimulated TrkA activation. An excerpt: There are several methods to measure whole length TrkA activation stimulated by its natural ligand or agonist NGF in live cells. For example, the PathHunter Profiling services offered by DiscoveRx (Fremont, Calif.). The PathHunter technology is an adaptation of enzyme fragment complementation that provides a novel, generic functional cell-based assay format for detecting protein-protein interactions. In this cell-based assay approach, with U2OS cell background, a small peptide epitope (PK) is expressed recombinantly on the intracellular C-terminus of TrkA (human full length). This is co-expressed with a larger sequence, termed enzyme acceptor (EA) that is attached to a cytoplasmic protein SHC1 which will interact with TrkA intracellularly. NGF induced activation of TrkA receptor causes either homo- or hetero-dimerization of TrkA resulting in cross-phosphorylation. The SHC1-EA fusion protein then binds the phosphorylated TrkA receptor forcing complementation of the PK and EA fragment. This interaction generates an active beta-galactosidase enzyme, which is detected using a chemiluminescent substrate.

The target in the next series is TrkB (Homo sapiens, UniProt Q16620). Nature of the series: PathHunter live whole cell functional assay, BDNF stimulated TrkB activation. Format: cell-based. The following applies: triplicate.
Sequence of TrkB (Q16620 32-822): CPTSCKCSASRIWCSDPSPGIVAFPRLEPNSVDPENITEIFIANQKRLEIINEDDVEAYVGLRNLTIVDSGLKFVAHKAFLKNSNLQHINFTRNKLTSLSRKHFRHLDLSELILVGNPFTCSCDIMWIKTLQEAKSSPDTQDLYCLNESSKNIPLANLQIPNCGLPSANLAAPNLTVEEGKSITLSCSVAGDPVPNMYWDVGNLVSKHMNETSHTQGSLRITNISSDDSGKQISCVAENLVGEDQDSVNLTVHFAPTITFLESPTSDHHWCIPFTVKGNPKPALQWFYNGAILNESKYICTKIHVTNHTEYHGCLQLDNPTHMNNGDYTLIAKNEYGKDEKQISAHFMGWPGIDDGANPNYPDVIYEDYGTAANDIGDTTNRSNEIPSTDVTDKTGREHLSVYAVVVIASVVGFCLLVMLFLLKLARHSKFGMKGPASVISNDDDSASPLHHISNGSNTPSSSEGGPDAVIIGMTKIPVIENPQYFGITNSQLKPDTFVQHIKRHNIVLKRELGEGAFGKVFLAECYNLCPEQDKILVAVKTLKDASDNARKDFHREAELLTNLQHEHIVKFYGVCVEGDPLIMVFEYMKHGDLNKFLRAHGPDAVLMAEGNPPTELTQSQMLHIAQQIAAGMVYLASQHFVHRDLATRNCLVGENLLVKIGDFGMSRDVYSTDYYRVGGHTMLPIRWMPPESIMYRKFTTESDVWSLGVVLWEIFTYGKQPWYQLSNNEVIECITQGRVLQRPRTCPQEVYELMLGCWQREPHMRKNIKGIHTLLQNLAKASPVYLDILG
The target in the next series is TrkC (Homo sapiens, UniProt Q16288). Description: PathHunter live whole cell functional assay, NT3 stimulated TrkC activation. In kind it is cell-based. The following applies: triplicate.
Sequence of TrkC (Q16288 32-839): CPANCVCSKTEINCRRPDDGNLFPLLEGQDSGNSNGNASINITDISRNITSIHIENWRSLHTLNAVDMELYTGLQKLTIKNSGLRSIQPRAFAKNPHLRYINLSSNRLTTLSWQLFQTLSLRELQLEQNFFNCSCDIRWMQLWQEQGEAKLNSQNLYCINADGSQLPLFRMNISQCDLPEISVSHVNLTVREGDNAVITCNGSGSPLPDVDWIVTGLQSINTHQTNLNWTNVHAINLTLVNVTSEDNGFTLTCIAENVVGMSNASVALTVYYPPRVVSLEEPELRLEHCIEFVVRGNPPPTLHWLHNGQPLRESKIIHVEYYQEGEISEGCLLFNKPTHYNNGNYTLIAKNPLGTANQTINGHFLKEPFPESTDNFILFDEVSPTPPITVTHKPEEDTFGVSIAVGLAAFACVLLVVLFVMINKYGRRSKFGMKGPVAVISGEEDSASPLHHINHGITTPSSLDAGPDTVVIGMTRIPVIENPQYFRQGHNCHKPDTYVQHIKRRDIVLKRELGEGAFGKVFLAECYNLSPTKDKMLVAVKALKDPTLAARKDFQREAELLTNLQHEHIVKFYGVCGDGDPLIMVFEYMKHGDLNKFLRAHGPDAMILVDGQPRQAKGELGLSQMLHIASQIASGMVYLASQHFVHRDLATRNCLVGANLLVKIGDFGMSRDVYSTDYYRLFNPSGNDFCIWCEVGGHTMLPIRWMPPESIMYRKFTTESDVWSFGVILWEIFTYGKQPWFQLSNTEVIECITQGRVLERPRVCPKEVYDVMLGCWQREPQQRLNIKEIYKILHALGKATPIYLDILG
Series [2] relates to human pancreatic cancer cells AsPC-1, MIA PaCa-2, BxPC-3, Capan-1 and Panc-1. Description: Cell viability and proliferation assay (CellTiter-Glo), pancreatic cancer cells. In kind it is cell-based. The following applies: 24 h or 48 h or 96 h incubation. The method, then:
(§1) To assess the chemosensitivity of tumor cells, cell viability is measured by CellTiter-Glo® Luminescent Cell Viability Assay (Promega; WI, USA) per the manufacturer's instruction. Briefly, […] to 7×10^5 cells/ml are cultured in sterile 96-well plates in the presence of increasing concentrations of the drugs (test article, 0 to 100 μM), or vehicle in RPMI medium. The plates are then incubated for 24 to 96 h, and then 100 μl of CellTiter-Glo reagent is added to lyse the cells. After a 10-min incubation at room temperature, the luminescence is recorded in a luminometer with an integration time of 1 s per well. The luminescence signals for the drug-treated cells are normalized by the luminescence signal obtained from vehicle-treated cells. As an alternative method to quantitate cell viability, the trypan blue exclusion dye method was used. Vehicle- or drug-treated cells were assayed by adding trypan blue solution (0.4% in phosphate-buffered saline [PBS]) to the culture medium. After 3 min, the number of dead cells that retained the dye is compared to the total number of cells to calculate cell viability. GraphPad Prism 5 software is used to calculate IC50 and plot effect-dose curve of drugs. Multiplate reader: EnVision 2104 (PerkinElmer). % of control variability=100*[(X(drug_treated)−L(baseline))/(H(vehicle_control)−L(baseline))]. […]

The test system of series [3] is human liver cancer cells SK-HEP-1 and HepG2. Nature of the series: Cell viability and proliferation assay (CellTiter-Glo), liver cancer cells. Format: cell-based. The following applies: 24 h or 48 h or 96 h incubation. The method, then:
as §1
In general terms: In ATP-based viability assays light output follows the ATP content of the culture.

Series [4] has as its system human stomach cancer cells NCI-N87. Description: Cell viability and proliferation assay (CellTiter-Glo), stomach cancer cells. To be noted: 24 h or 48 h or 96 h incubation. In kind it is cell-based. The method, then:
as §1

The subject of series [5] is CFA-induced inflammatory pain. Description: Rat CFA-induced inflammatory pain model. In kind it is in vivo. To be noted: 50 μL of 1 mM s.c. into the paw 3 hours after CFA. The method, then:
Hyperalgesia was induced by subcutaneously injecting 50 μL of CFA (Sigma-Aldrich, St. Louis, Mo., USA) into the plantar surface of the left hind paw of the rats using a 30-gauge hypodermic needle under sevoflurane anesthesia. The classical signs of inflammation, including edema and redness, for up the last day of tests were recorded. To assess the effect of test article on CFA-induced inflammatory pain, the rats were anesthetized with sevoflurane 3 hours after CFA injection and then injected 50 μL of either 1 mM test article (n=6) or Saline (n=4) subcutaneously (S.C.) into the same site as the CFA injection, using a 30-gauge hypodermic needle under sevoflurane anesthesia, according to published method (Ueda K., et al, J Pharmacol. Sci., 2010; 112(4):438-43). Paw withdrawal latencies (thermal hyperalgesia) are measured before and at […] 2, 4, and 7 days after CFA injection. Mechanical thresholds were also measured in the same way with either Formula 1 compound (n=6) or Saline (n=4) at similar different time points (for example, 1, 3 hour and 3 days). The noxious heat and mechanical thresholds were separately measured in each group of rats. The threshold was measured 3-5 times in each rat and then averaged. Stimulus interval was 5 min.

The subject of series [6] is mechanical allodynia in CCI rats. Description: Chronic constriction injury (CCI) model of neuropathic pain. In kind it is in vivo, rat. To be noted: for side effects observed in dosed CCI-rats (drowsiness, motor incoordination, other abnormality): single oral dose (gabapentin 100 mg/kg). An excerpt: The CCI model is one of the most commonly used mono-neuropathic pain model firstly described in details by Bennett and Xie (Bennett G J, Xie Y K. Pain. 1988; 33(1):87-107). It mimics important clinical chronic pain symptoms such as mechanical allodynia and thermal hyperalgesia. Chronic constriction injury of the sciatic nerve was produced by tying four loose ligatures around the left sciatic nerve according to the method of Bennett and Xie. […] Calibrated von Frey filaments were used to determine the lowest mechanical (tactile) threshold required to evoke a brisk paw withdrawal reflex in the rat hindpaws. Rats were allowed to acclimatize in wire mesh cages for 15-20 min prior to von Frey testing. Assessment of paw withdrawal thresholds (PWTs) using von Frey filaments was undertaken prior to CCI-surgery (pre-surgery baseline on day 0). Before the drug dosing on day 14, the pre-dose baseline was recorded for each rat. […] Drug-naïve CCI-rats (n=4-6 per group) were used. The oral (PO) gavage vehicle was either 10% (w/v) Povidone K25 in water for PO dosing, or 18% (w/v) CrosPovidone in water for PO dosing, or 0.5% CMC-Na/0.1% Tween 80 in distilled water for PO dosing. The positive control gabapentin was dissolved in the vehicle and orally given at 100 mg/kg (by oral gavage). Test article was dissolved or suspended in the vehicle and orally given at 25, 50, 100 and 150 mg/kg. Each CCI-rat was administered a single oral dose of test article, gabapentin or vehicle control, 2 hours before assessment of PWT.

Series [7] has as its system mechanical allodynia in SNL rats. Nature of the series: Spinal nerve ligation (SNL) mono-neuropathic pain model. Format: in vivo, rat. To be noted: oral administration, dose-dependent. The method, then:
The surgical procedure will be performed according to the method firstly described by Kim and Chung (Kim S H, Chung J M. Pain. 1992; 50(3):355-63.). This procedure will result in tactile allodynia in the left hindpaw. […] The dose-response anti-allodynia effects of test compound: on day 14 after surgery, rats were treated with test article at one of four doses, vehicle or positive control by oral gavage, and PWT was determined by calibrated von Frey filaments at time points of 0 (right before the drug dosing, Pre-Dose Baseline), 0.5, 1, 2, 4 and 6 hr. The anti-allodynia effects of repeated administration of test article: Administration of test article was started on day 7 after surgery, once a day for 7 days. PWT was determined by calibrated von Frey filaments, 2 hour after test article dosing each day. After 7 days dosing, the measurement were continued, every other day without compound dosing for another 7 days. PWT was determined at the time points as given above.

Series [8] deals with human pancreatic cancer cells (PANC-1). Nature of the series: Subcutaneous xenograft tumor mouse model. The following applies: oral 150 mg/kg, Day 7 postdose, p<0.02. In kind it is in vivo.
Series [9] in a line: Accelerated stability tests by XRPD and Raman. Format: physicochemical. The following applies: over 1 week. The method, then: Approximately 2 mg of sample was gently compressed on the XRPD zero back ground single obliquely cut silica sample holder. The sample was then loaded into a D/MAX 2200 X-ray powder diffractometer (Rigaku) or a Philips X-Pert MPD diffractometer and analyzed using the following experimental conditions (Tube anode: Cu; Generator tension: 40 kV; Tube current: 40 mA; Wavelength alpha1: 1.54056 Å; Wavelength alpha2: 1.5444 Å; Start angle [2 theta]: 5; End angle [2 theta]: 50; and Continuous scan). For suspected novel forms a slightly slower scan speed was used over a range of […].
Samples were analyzed by a Nicolet Almega XR Dispersive Raman Microscope for its Raman spectrum using the following conditions (Exposure Time: 1.0 s; Acquisition No: 10; Pinhole Size: […]; Wavelength range: 2000˜300 cm^−1 (single grating); Laser: He—Ne 780 nm 100% power, Objective: 20×/0.40 or 50×/0.75 (magnifier/numerical aperture number)). Then the measured Raman spectra were corrected by baseline subtraction using the software OMNIC™ v7.3.

Series [10] can be described thus: Solubility of the free acid. In kind it is physicochemical.

T1 sequence (P04629 33-796): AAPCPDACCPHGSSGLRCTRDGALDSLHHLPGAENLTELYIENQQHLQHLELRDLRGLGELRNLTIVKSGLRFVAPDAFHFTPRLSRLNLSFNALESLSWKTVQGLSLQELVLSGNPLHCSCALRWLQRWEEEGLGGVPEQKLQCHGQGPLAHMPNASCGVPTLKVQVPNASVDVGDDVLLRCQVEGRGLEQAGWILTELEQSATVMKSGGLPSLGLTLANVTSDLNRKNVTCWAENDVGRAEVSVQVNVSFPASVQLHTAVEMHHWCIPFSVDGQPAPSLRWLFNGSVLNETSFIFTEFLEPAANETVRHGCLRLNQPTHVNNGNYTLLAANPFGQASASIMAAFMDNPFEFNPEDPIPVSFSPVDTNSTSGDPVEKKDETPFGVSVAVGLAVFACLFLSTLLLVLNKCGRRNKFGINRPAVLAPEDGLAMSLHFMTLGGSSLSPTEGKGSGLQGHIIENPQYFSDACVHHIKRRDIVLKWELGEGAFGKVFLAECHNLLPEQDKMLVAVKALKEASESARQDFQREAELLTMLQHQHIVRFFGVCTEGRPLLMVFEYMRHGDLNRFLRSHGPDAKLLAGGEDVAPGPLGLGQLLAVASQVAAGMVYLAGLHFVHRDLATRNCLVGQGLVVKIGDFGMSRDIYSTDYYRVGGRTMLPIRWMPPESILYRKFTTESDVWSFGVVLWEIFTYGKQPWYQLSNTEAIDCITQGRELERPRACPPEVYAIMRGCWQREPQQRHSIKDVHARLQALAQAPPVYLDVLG

As a reminder, the pIC50 is −log10 of the IC50, conventionally taken in molar units. In turn, `O=C([O-])c1ccc(Nc2cc(N3CCN(C4CCCCC4)CC3)c3noc4c3c2C(=O)c2ccccc2-4)cc1.[Na+]` [Compound I, Sodium 4-((3-(4-cyclohexylpiperazin-1-yl)-6-oxo-6H-anthra[1,9-cd]isoxazol-5-yl)amino)benzoate] displayed a F in series [1] of around 100%. For the same compound, the pIC50 on TrkA (human full length) is around 7.30; on TrkB, below 5.00; at TrkC, below 5.00; in series [2], 5.30 to 5.70; in series [3] it was 5.10 to 5.70; in series [4], around 5.15. Further, the “analgesic effect (thermal and mechanical thresholds, FIG. 1)” value in series [5] is reported as “efficacious in relieving the pain”. The “reduction of mechanical allodynia (paw withdrawal threshold, von Frey, FIG. 2)” value in [6] (single oral dose 25, 50, 100 and 150 mg/kg, 2 hours before assessment, dose-dependent) was “significantly reduced mechanical allodynia”. In series [6], the “side effects observed in dosed CCI-rats (drowsiness, motor incoordination, other abnormality)” value was “no such effect or other abnormality was observed”. Further, in [7], the “reduction of mechanical allodynia (paw withdrawal threshold, von Frey)” value is reported as “significantly reduced mechanical allodynia”. Also, the “tumor volume reduction compared to vehicle treated group” value in [8] is reported as “more than 21%”. In addition, the “solid-state stability by XRPD and Raman” value in [9] (40° C./75% RH) and in series [9] (80° C.) was “no instability” each time.
As for `O=C(O)c1ccc(Nc2cc(N3CCN(C4CCCCC4)CC3)c3noc4c3c2C(=O)c2ccccc2-4)cc1` [Compound 701, 4-((3-(4-cyclohexylpiperazin-1-yl)-6-oxo-6H-anthra[1,9-cd]isoxazol-5-yl)amino)benzoic acid], the solubility entry in series [10] is “limited solubility”.
For `NCC1(CC(=O)O)CCCCC1` [gabapentin, reference compound], the “side effects observed in dosed CCI-rats (drowsiness, motor incoordination, other abnormality)” value in series [6] is listed as “drowsiness or motor incoordination”.
